Molecules are shown by their SMILES. Where a chain is given by its changes, count along the chain named.

The target in test [1] is T1, Comamonas testosteroni 3α-HSDH mutant [T188G], N-terminal hexahistidine tag (Comamonas testosteroni, UniProt P80702, T188G).
T1 sequence (P80702 1-257 T188G): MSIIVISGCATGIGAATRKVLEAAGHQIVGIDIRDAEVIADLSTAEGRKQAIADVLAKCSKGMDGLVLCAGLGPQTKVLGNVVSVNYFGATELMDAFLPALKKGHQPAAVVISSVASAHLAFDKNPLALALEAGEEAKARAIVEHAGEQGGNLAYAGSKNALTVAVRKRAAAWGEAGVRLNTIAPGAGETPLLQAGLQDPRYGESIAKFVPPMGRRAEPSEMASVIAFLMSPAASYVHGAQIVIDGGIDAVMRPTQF
As to the kind of experiment: Kinetics of 3α-HSDH [T188G], N-terminal His tag. Type of test: biochemical. The conditions noted are these: DHCA. Here is the method: The activity of the 3α-HSDH and of the mutants was determined using a photometric assay, where the decrease in absorbance was measured at 340 nm over a period of 30 seconds.
The targeted exchange of amino acid radicals was performed analogously to Example 2B.
Following cultivation and expression, the cells were harvested, and the specific activities of the cell-free crude extracts were determined at substrate concentrations of 10 mM DHCA. The enzyme variants where the activity measurements with crude extract enzyme were most promising were purified by means of Ni-NTA chromatography, and their kinetic constants were determined by measurements with different DHCA concentrations of between 10 μM and 20 mM. In addition, an expression check by means of SDS PAGE was carried out for all mutants.

Test [2] has as its target T2, Comamonas testosteroni 3α-HSDH dual mutant [P185A/T188A], N-terminal hexahistidine tag (Comamonas testosteroni, UniProt P80702, P185A/T188A).
T2 sequence (P80702 1-257 P185A/T188A): T1 sequence (P80702 1-257 T188G) with P185A, G188A
The test can be described thus: Kinetics of 3α-HSDH [P185A/T188A], N-terminal His tag.

The target of test [3] is T3, Comamonas testosteroni 3α-HSDH mutant [P185A], N-terminal hexahistidine tag (Comamonas testosteroni, UniProt P80702, P185A).
T3 sequence (P80702 1-257 P185A): T1 sequence (P80702 1-257 T188G) with P185A, G188T
As to the kind of experiment: Kinetics of 3α-HSDH [P185A], N-terminal His tag.

Test [4] deals with T4, Comamonas testosteroni 3α-HSDH, wild type, C-terminal 9×His tag (SEQ ID NO: 51) (Comamonas testosteroni, UniProt P80702).
T4 sequence (P80702 with tags, fused parts or gaps): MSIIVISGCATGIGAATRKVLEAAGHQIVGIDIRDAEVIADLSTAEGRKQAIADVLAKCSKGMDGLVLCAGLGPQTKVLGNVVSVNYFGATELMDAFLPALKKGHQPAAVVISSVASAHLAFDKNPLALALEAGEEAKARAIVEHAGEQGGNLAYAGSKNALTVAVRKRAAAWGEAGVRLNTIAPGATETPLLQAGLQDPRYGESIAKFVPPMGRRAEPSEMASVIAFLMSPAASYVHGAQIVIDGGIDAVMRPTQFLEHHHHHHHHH
The test can be described thus: Michaelis-Menten kinetics of 3α-HSDH with 9×His tag.
Text: The His-tag allows for very simple purification of the HSDH protein since this sequence is bound with high specificity by specific chromatographic material (NTA (Ni-nitrilotriacetate)-modified support material, loaded with divalent nickel ions, for example “His Pur Ni-NTA” (Nimagen B. V., Nijmegen, The Netherlands)). To this end, the cell-free crude extract is applied to a dropping column comprising this material, which dropping column has previously been equilibrated with the disruption buffer (3 to 5 column volumes). Weakly binding protein was removed by washing with 3 to 5 column volumes of wash buffer (20 mM imidazole, 50 mM sodium phosphate, 300 mM NaCl, pH 8). […] The process was carried out at room temperature. The imidazole which was present was to be removed by buffer exchange.
Following expression (25° C., 0.5 mM, IPTG, 20 hours), the protein was purified, and the expression and the purification were checked by means of an SDS gel. […] The NADH concentration was 0.2 mM. Purified protein was employed in the measurements.

The target in test [5] is T5, Comamonas testosteroni 3α-HSDH mutant [T188A], N-terminal hexahistidine tag (Comamonas testosteroni, UniProt P80702, T188A).
T5 sequence (P80702 1-257 T188A): T1 sequence (P80702 1-257 T188G) with G188A
The test can be described thus: Kinetics of 3α-HSDH [T188A], N-terminal His tag.

The target of test [6] is T6, Comamonas testosteroni 3α-HSDH, wild type, without His tag, SEQ ID NO:4 (Comamonas testosteroni, UniProt P80702).
T6 sequence (P80702 1-257): T1 sequence (P80702 1-257 T188G) with G188T
The test can be described thus: Michaelis-Menten kinetics of wild-type 3α-HSDH without His tag.

[7] abbreviates: Table 14, substrate DHCA, tag N, apparent values.
[8] abbreviates: His tag length 9, DHCA 10 μM-10 mM, NADH 0.2 mM, purified.

As for `C[C@H](CCC(=O)O)[C@H]1CC[C@H]2[C@@H]3C(=O)C[C@@H]4CC(=O)CC[C@]4(C)[C@H]3CC(=O)[C@]12C` [DHCA, dehydrocholic acid], the substrate excess inhibition entry in test [1] is on record as “No pronounced substrate excess inhibition”. For the same compound, the kcat was 17.6 s⁻¹ in test [2] (setting [7]), 48.5 s⁻¹ in test [3] (setting [7]), 8.9 ± 0.5 s⁻¹ in test [4] (setting [8]) and 130.3 s⁻¹ in test [5] (setting [7]). In addition, the vmax in test [2] (setting [7]) was 36.9 ± 2.6 U/mg; in test [3] (setting [7]) it was 102.8 ± 5.7 U/mg; in test [4] (setting [8]), 19.2 ± 1.1 U/mg; in test [5] (setting [7]), 274.0 ± 11.6 U/mg; in test [6] (Table 14, substrate DHCA, no tag, apparent values) it was 134 ± 3.8 U/mg. The figures for the remaining activity at 10000 µM in test [2] (read-out: residual activity) and in test [3] (read-out: residual activity) were around 30% and 5%, respectively. Also, the “KM value better than the variant with 3 histidines” value in test [4] (DHCA, 9 vs 3 histidines) amounted to 14 fold. Besides, in test [5] (read-out: residual activity), the remaining activity at 20000 µM is around 20%. The residual activity in test [6] (after increasing DHCA further above approximately 1 mM, substrate excess inhibition) is 10-20%.

The values are drawn from US10487348B2, “3-alpha-hydroxysteroid dehydrogenase mutants and process for the preparation of ursodeoxycholic acid” (Pharmazell GmbH, priority 2014, dated 2019).
